Calls of active or inactive are those of the source.
Legend:
[1] = target: T1, Sentrin-specific protease 7 (Homo sapiens, UniProt Q9BQF6); test: inhibition of human SENP7 cleavage activity – biochemical, luminescence, set 2, SAR follow-up (AID 588600); type: functional
T1 sequence (Q9BQF6 whole entry): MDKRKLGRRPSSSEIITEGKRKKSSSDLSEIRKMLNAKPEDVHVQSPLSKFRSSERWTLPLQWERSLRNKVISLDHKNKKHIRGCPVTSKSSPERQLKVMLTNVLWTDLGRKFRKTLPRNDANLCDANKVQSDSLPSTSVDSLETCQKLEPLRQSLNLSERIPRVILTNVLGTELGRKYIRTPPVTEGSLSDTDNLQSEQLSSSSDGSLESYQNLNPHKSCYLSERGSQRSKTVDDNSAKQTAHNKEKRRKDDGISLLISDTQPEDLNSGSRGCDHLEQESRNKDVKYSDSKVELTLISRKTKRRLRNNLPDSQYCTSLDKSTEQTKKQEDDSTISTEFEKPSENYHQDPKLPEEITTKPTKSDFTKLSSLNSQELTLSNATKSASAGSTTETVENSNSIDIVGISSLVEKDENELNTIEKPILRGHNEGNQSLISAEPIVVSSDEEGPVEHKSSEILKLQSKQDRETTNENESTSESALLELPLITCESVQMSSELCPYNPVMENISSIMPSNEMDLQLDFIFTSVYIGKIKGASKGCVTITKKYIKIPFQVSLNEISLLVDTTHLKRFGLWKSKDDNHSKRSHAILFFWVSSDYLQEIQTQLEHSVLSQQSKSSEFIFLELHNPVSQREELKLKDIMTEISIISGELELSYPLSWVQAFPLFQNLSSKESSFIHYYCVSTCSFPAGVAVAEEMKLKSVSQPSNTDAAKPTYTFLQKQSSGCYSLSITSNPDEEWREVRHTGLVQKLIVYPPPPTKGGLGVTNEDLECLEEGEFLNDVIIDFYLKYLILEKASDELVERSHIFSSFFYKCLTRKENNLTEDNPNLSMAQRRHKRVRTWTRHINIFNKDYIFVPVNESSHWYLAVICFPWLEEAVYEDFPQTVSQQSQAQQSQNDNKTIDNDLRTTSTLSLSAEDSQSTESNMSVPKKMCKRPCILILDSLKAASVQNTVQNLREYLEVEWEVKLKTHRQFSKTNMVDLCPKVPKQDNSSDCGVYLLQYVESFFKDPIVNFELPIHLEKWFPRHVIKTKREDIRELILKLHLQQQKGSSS

[2] = target: T2, Sentrin-specific protease 8 (Homo sapiens, UniProt Q96LD8); test: inhibition of sentrin protease 8 – biochemical, luminescence, set 2, SAR follow-up (AID 588601); type: functional
T2 sequence (Q96LD8 whole entry): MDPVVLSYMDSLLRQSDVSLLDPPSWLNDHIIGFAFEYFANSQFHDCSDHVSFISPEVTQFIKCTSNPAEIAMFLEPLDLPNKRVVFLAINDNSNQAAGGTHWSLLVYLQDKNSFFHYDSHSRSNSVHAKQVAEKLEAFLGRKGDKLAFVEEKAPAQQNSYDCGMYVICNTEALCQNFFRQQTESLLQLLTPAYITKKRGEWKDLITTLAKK

[3] = target: T3, Sentrin-specific protease 6 (Homo sapiens, UniProt Q9GZR1); test: inhibition of human SENP6 catalytic domain – biochemical, luminescence, set 2, SAR follow-up (AID 588598); type: functional
T3 sequence (Q9GZR1 whole entry): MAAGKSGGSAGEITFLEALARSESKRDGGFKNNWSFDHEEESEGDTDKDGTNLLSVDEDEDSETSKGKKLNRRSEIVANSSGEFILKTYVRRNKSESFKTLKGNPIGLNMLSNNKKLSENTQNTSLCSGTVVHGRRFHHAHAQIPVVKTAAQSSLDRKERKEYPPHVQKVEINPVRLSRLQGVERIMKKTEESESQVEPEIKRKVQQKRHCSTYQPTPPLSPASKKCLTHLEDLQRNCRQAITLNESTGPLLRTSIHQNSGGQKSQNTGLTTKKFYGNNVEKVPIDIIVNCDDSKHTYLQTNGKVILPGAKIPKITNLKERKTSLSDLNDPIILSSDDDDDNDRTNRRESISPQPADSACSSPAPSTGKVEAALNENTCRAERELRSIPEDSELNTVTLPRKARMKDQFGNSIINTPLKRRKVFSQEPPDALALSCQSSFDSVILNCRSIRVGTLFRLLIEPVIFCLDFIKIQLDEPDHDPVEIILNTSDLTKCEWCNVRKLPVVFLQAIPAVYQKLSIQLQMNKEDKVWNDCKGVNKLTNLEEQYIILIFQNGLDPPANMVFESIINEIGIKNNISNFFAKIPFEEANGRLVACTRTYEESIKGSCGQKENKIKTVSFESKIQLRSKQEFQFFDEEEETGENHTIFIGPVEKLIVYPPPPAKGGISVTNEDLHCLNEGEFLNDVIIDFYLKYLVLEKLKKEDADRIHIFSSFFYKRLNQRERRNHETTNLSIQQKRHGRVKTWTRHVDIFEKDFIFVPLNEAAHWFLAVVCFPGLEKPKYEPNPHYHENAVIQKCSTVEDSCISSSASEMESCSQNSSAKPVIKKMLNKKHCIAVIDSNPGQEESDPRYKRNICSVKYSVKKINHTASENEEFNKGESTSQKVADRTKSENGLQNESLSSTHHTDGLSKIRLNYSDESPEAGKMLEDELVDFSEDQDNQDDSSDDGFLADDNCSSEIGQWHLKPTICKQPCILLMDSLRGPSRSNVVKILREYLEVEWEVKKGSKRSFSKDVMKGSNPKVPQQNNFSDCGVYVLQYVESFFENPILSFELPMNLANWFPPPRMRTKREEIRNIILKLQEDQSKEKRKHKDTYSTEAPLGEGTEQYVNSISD

Caspase-3 = target: T4, Caspase-3 (Homo sapiens, UniProt P42574); test: inhibition of recombinant caspase-3 activity – biochemical, luminescence, set 2, selectivity assay for SENP protease inhibitor project, SAR follow-up (AID 588599); type: functional
T4 sequence (P42574 whole entry): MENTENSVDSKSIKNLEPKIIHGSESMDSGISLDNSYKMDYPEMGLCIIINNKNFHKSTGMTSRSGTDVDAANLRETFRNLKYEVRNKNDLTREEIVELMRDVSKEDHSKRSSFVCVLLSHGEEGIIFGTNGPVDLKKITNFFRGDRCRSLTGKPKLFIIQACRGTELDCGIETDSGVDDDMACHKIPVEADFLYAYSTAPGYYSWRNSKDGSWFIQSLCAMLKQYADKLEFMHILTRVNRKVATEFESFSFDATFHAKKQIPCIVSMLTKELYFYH

Candida albicans [4] = test: C. albicans growth inhibition with fluconazole – CaCi-2 strain, Alamar Blue, dry powder, set 4, dose response (AID 488943); type: functional, organism-based
Candida albicans [5] = test: resistant Candida growth with fluconazole co-treatment – CaCi-8 strain, Alamar Blue, dry powder, set 2, dose response (AID 488909); type: functional, organism-based
Candida albicans [6] = test: fluconazole-resistant Candida strain growth inhibitors – CaCi-8 strain, dry powder, set 4, dose response (AID 488950); type: functional, organism-based
Phospholipase D2 = Phospholipase D2 (Homo sapiens, UniProt O14939); test: cellular phospholipase D2 inhibition IC50 – cell-based, dose response (AID 602147); type: functional;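 note: cellular assay in HEK293 cells overexpressing GFP-tagged PLD2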
Chain of Phospholipase D2 (O14939 whole entry): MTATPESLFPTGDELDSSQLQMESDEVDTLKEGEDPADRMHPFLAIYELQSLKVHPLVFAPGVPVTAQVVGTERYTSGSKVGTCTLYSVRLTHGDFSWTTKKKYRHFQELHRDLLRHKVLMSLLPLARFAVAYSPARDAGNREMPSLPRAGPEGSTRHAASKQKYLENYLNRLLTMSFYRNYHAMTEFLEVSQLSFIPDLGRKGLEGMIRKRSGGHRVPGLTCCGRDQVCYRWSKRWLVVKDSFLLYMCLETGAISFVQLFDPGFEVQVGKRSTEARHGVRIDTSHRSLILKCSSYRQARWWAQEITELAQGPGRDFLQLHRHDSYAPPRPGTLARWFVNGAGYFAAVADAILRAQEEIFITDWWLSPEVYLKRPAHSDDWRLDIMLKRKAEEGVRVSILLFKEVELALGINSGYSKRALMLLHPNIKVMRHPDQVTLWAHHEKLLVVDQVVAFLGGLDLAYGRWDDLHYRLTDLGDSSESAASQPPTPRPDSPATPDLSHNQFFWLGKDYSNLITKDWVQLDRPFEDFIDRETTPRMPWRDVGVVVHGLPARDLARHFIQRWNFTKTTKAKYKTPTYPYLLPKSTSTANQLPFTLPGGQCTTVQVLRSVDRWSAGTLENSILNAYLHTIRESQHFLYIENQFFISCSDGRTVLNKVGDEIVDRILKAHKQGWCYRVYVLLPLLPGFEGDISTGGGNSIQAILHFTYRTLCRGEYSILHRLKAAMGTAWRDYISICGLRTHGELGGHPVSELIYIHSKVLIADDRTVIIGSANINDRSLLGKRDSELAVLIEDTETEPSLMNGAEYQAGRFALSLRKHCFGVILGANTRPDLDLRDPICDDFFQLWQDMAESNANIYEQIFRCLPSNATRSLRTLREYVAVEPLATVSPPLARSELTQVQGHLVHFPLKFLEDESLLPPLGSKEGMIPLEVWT

Phospholipase D1 = Phospholipase D1 (Homo sapiens, UniProt Q13393); test: cellular phospholipase D1 inhibition IC50 – cell-based, dose response (AID 602151); type: functional;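 note: cellular PLD1 assay in Calu-1 cells stimulated with PMA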
Chain of Phospholipase D1 (Q13393 whole entry): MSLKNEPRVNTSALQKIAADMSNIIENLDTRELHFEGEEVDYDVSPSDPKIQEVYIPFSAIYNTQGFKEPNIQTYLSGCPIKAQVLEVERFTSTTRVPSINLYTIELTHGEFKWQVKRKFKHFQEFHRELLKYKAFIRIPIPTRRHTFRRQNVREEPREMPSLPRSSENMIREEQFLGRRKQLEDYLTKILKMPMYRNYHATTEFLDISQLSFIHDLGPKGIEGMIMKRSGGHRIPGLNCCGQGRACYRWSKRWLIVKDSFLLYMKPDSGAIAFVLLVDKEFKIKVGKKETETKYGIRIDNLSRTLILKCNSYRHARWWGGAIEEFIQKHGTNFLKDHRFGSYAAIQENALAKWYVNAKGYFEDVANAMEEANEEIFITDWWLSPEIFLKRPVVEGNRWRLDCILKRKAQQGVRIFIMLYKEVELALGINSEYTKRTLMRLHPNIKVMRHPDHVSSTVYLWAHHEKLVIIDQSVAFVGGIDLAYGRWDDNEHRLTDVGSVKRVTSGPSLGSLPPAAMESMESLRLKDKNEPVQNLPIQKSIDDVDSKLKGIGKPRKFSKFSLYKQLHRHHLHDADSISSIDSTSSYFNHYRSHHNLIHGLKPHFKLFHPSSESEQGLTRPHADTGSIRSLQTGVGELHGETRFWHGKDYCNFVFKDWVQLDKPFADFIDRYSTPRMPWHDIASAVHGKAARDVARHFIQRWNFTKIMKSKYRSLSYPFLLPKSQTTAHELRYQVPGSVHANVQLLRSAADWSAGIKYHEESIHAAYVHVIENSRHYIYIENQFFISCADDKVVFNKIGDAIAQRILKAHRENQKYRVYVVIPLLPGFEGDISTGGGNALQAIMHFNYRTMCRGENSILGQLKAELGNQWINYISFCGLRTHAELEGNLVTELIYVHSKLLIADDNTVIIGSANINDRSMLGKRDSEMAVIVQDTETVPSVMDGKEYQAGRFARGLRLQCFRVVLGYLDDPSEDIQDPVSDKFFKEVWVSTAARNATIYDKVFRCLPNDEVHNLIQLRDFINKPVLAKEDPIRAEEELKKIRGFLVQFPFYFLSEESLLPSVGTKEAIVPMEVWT

[7] = target: Cyclin-dependent kinase 2 (Homo sapiens, UniProt P24941); test: inhibition of human CDK2/cyclin A – biochemical, cherry-picked samples, selectivity assay for Dyrk1A inhibitor project, dose response (AID 602127)
[8] = target: Dual specificity protein kinase CLK1 (Homo sapiens, UniProt P49759); test: inhibition of human CLK1 activity – biochemical, cherry-picked samples, selectivity assay for Dyrk1A inhibitor project, dose response (AID 588811)
Chain of Dual specificity protein kinase CLK1 (P49759 whole entry): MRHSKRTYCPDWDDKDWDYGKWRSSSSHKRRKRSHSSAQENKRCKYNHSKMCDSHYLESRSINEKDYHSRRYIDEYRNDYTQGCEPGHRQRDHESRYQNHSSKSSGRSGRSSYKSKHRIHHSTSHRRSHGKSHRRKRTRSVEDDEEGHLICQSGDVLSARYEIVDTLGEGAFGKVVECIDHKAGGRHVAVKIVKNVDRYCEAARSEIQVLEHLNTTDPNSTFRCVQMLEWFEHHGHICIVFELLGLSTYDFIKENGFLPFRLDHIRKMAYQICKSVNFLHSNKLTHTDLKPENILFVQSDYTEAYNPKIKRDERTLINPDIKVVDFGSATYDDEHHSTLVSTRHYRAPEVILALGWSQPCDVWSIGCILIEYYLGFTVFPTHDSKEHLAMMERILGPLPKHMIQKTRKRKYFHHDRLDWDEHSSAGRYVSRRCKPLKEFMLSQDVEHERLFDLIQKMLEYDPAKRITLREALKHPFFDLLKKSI

In the case of `COc1cccc2sc(NC(=O)c3ccc(OCc4nccn4C)cc3)nc12`, the IC50 [1] is reported as > 99 µM (inactive), the IC50 [2] is reported as 77.4 µM (active) and the IC50 [3] is reported as 77.2 µM (active). The IC50 (Caspase-3) was 89.9 µM (active).
In the case of `O=C(c1ccc(Cl)cc1)N1CCN(c2ncnc3ccccc23)CC1`, the AC50 (Candida albicans [4]) is reported as 1.07 µM (active), the AC50 (Candida albicans [5]) is reported as 4.12 µM (active) and the AC50 (Candida albicans [6]) is reported as 2.27 µM (active).
For `O=C(NCCN1CCC(n2c(=O)[nH]c3ccccc32)CC1)c1cscn1`, the IC50 (Phospholipase D2) was 0.25 µM (active) and the IC50 (Phospholipase D1) was 0.033 µM (active).
For `c1cncc(CNc2nccc(-c3ccc4cn[nH]c4c3)n2)c1`, the AC50 [7] was 13.8 µM (active) and the AC50 [8] was 0.0754 µM (active).

Source: ChEMBL document CHEMBL1201862, “PubChem BioAssay data set” (2004)
